The values below come from PubChem BioAssay (NCI).

Some test systems named below: LOX IMVI melanoma; RXF 393 renal; CCRF-CEM leukemia; SW-620 colon; UACC-62 melanoma; KM12 colon; U251 CNS; SK-OV-3 ovarian; EKVX NSCLC; SR leukemia; MCF7 breast; SK-MEL-2 melanoma.
Common to all, as to assay: NCI-60 cell line screen, 48 h

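Step 1: Grow cells in 96-well plates. Step 2: Expose to compound for 48 hours at 5 concentrations. Step 3: Interpolate endpoints linearly; if unreached, use highest concentration. TGI is the concentration that stops growth completely.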 Where only a bound is given, the exact number is not on record here.

As for `CCOC(=O)NC(NNc1ccc([N+](=O)[O-])cc1[N+](=O)[O-])(C(F)(F)F)C(F)(F)F`, the TGI in the experiment with LOX IMVI melanoma is greater than 100 µM; with RXF 393 renal, greater than 100 µM; in the experiment with CCRF-CEM leukemia, 72.3 µM; in the experiment with SW-620 colon it was greater than 100 µM; with UACC-62 melanoma, greater than 100 µM; in the experiment on KM12 colon it was greater than 100 µM. Besides, the TGI in the experiment on U251 CNS was 64.6 µM; in the experiment on SK-OV-3 ovarian, 69.4 µM; in the experiment on EKVX NSCLC it was greater than 100 µM; in the experiment with SR leukemia it was 60.6 µM; in the experiment with MCF7 breast it was greater than 100 µM; in the experiment on SK-MEL-2 melanoma, greater than 100 µM.
Turning to `CCOC(=O)/C=C(\C(=O)OCC)n1cnc2c(N)ncnc21`, the TGI in the experiment with LOX IMVI melanoma was 11.9 µM; in the experiment on RXF 393 renal, 26.4 µM; in the experiment with CCRF-CEM leukemia it was 4.51 µM; in the experiment on SW-620 colon it was 8.49 µM; in the experiment on UACC-62 melanoma, 23.8 µM; with KM12 colon it was 30.5 µM. For the same compound, the TGI in the experiment with U251 CNS was found to be 20.8 µM; in the experiment with SK-OV-3 ovarian, 32 µM; in the experiment with EKVX NSCLC, 30.7 µM; with SR leukemia, 4.25 µM; in the experiment with MCF7 breast it was 11.9 µM; with SK-MEL-2 melanoma, 30.7 µM.
As for `OCCCCn1cc(Cn2ncc3c(SCc4ccccc4)ncnc32)nn1`, the TGI in the experiment with LOX IMVI melanoma is greater than 100 µM; in the experiment with RXF 393 renal, greater than 100 µM; in the experiment on CCRF-CEM leukemia, greater than 100 µM; in the experiment on SW-620 colon, 90.9 µM; with UACC-62 melanoma it was greater than 100 µM; with KM12 colon it was greater than 100 µM. Moreover, the TGI was greater than 100 µM in the experiment with U251 CNS; greater than 100 µM in the experiment on SK-OV-3 ovarian; greater than 100 µM with EKVX NSCLC; 85.4 µM with SR leukemia; greater than 100 µM in the experiment with MCF7 breast; greater than 100 µM in the experiment with SK-MEL-2 melanoma.
For `O=C1N(CN2CCOCC2)CN(CN2CCOCC2)C(=O)N1Cc1ccccc1`, the TGI worked out at 33 µM with LOX IMVI melanoma; 35.7 µM in the experiment with RXF 393 renal; 75.8 µM in the experiment on CCRF-CEM leukemia; 54.9 µM with SW-620 colon; 49.4 µM in the experiment with UACC-62 melanoma; 57.4 µM with KM12 colon. The TGI was 56.8 µM in the experiment with U251 CNS; greater than 100 µM with SK-OV-3 ovarian; greater than 100 µM in the experiment on EKVX NSCLC; 40.7 µM in the experiment on SR leukemia; 82.6 µM in the experiment on MCF7 breast; 32.2 µM in the experiment on SK-MEL-2 melanoma.
For `O=c1oc2cc(O)ccc2cc1-c1nc2ccccc2s1`, the TGI was 90.2 µM with LOX IMVI melanoma; 79.9 µM with RXF 393 renal; 26.8 µM in the experiment on CCRF-CEM leukemia; 44 µM in the experiment on SW-620 colon; 41.7 µM with UACC-62 melanoma; greater than 100 µM in the experiment with KM12 colon. The TGI in the experiment with U251 CNS is 55.7 µM; with SK-OV-3 ovarian, 78.1 µM; in the experiment with EKVX NSCLC, 85.9 µM; in the experiment on SR leukemia, greater than 100 µM; in the experiment with MCF7 breast it was 67 µM; with SK-MEL-2 melanoma, 50.6 µM.
Take `O=C1c2ccccc2C(=O)c2c1oc(=O)c1ccccc21`: the TGI was 9.9 µM with LOX IMVI melanoma; 9.62 µM in the experiment on RXF 393 renal; 16 µM in the experiment with CCRF-CEM leukemia; greater than 25 µM with SW-620 colon; 8.36 µM with UACC-62 melanoma; 12.8 µM with KM12 colon. The TGI was 12.2 µM in the experiment on U251 CNS; greater than 25 µM in the experiment on SK-OV-3 ovarian; 14.3 µM in the experiment on EKVX NSCLC; 21.3 µM with SR leukemia; 13.6 µM with MCF7 breast; 10.1 µM with SK-MEL-2 melanoma.
Turning to `COc1ccc(C(=O)Cn2c(C(C)=O)nc3ccccc32)cc1`, the TGI is greater than 46.4 µM in the experiment with LOX IMVI melanoma; greater than 100 µM in the experiment with RXF 393 renal; greater than 100 µM with CCRF-CEM leukemia; greater than 100 µM with SW-620 colon; greater than 92.9 µM in the experiment on UACC-62 melanoma; greater than 100 µM in the experiment with KM12 colon. In addition, the TGI is 31.8 µM in the experiment with U251 CNS; greater than 100 µM in the experiment on SK-OV-3 ovarian; greater than 100 µM in the experiment with EKVX NSCLC; greater than 100 µM with SR leukemia; greater than 100 µM with MCF7 breast; greater than 100 µM in the experiment with SK-MEL-2 melanoma.
